Tests used:
[1] = tested on: Escherichia coli; test: Evaluation of bactericidal function (MIC / minimum bactericidal concentration); format: cell-based; set-up: key: −: exhibited effects of bactericidal action; +: with the exception of the results of Comparative Examples 1 and 2; conditions: at the concentration used in the example; absence of growth 24 hours later
Description: (§1) Minimum inhibitory concentration (MIC) of the acidic electrolyzed water was measured based on the standard test method of the Japanese Society of Chemotherapy followed by confirming the absence of growth 24 hours later to evaluate the minimum bactericidal concentration and determine if bactericidal effects are present at the concentration used in the example. Minimum inhibitory concentrations (MIC) of the alkaline electrolyzed water and acidic electrolyzed water were respectively measured based on the standard test method of the Japanese Society of Chemotherapy followed by confirming the absence of growth 24 hours later to evaluate the minimum bactericidal concentration and determine if bactericidal effects are present at the concentration used in Example 2-2. Minimum inhibitory concentrations (MIC) of the acidic electrolyzed water and alkaline electrolyzed water were respectively measured based on the standard test method of the Japanese Society of Chemotherapy followed by confirming the absence of growth 24 hours later to evaluate the minimum bactericidal concentration and determine if bactericidal effects are present at the concentration used in Example 3-2. Minimum inhibitory concentration (MIC) of the tap water was measured based on the standard test method of the Japanese Society of Chemotherapy followed by confirming the absence of growth 24 hours later to evaluate the minimum bactericidal concentration and determine if bactericidal effects are present at the concentration used in the example. Minimum inhibitory concentrations (MIC) of the alkaline electrolyzed water was measured based on the standard test method of the Japanese Society of Chemotherapy followed by confirming the absence of growth 24 hours later to evaluate the minimum bactericidal concentration and determine if bactericidal effects are present at the concentration used in Comparative Example 2-2. Minimum inhibitory concentration (MIC) of the 250 ppm sodium hypochlorite was measured based on the standard test method of the Japanese Society of Chemotherapy followed by confirming the absence of growth 24 hours later to evaluate the minimum bactericidal concentration and determine if bactericidal effects are present at the concentration used in Comparative Example 3-2. Minimum inhibitory concentration (MIC) of the 500 ppm sodium hypochlorite was measured based on the standard test method of the Japanese Society of Chemotherapy followed by confirming the absence of growth 24 hours later to evaluate the minimum bactericidal concentration and determine if bactericidal effects are present at the concentration used in Comparative Example 4-2. Minimum inhibitory concentration (MIC) of the 1000 ppm sodium hypochlorite was measured based on the standard test method of the Japanese Society of Chemotherapy followed by confirming the absence of growth 24 hours later to evaluate the minimum bactericidal concentration and determine if bactericidal effects are present at the concentration used in Comparative Example 4-2.

[2] = tested on: Staphylococcus aureus; test: as above; format: cell-based; set-up: key: −: exhibited effects of bactericidal action; +: with the exception of the results of Comparative Examples 1 and 2; conditions: at the concentration used in the example; absence of growth 24 hours later
Description: as §1

[3] = Residual chlorine concentration of recycled pulp (JIS K 0102 33.2); format: physicochemical; conditions: 5.00 g eluted into 100 ml, criterion Less than 1 ppm
Description: (§2) Eight commercially available disposable diapers (Moony M Size, Unicharm Corp.) that had adsorbed 200 ml of physiological saline were placed in a twin tub compact washing machine (Harebare AST-01, Alumis Co., Ltd.). 80 g of CaO (Wako Pure Chemical Industries, Ltd.) were placed in the washing tub followed by the addition of 6.5 L of acidic electrolyzed water (pH 3, generated with the ESS-ZERO Electrolyzed Water Sanitation System manufactured by Tech Corp.). After washing for 15 minutes, the liquid inside the washing tub was discharged followed by newly adding 6.5 L of acidic electrolyzed water (pH 3, formed with the ESS-ZERO Electrolyzed Water Sanitation System manufactured by Tech Corp.). After washing for 15 minutes, only the pulp that floated in the liquid in the washing tub was skimmed off followed by placing in a mesh pouch (measuring 25 cm on a side, N-No. 250HD, NBC Meshtec Inc.) and dehydrating for 5 minutes in the spin tub (dehydrator). The recycled pulp was rinsed for 15 minutes with running water (tap water) while still in the mesh pouch followed by again dehydrating for 5 minutes in the spin tub (dehydrator). The pulp was then dried for 24 hours with a hot air dryer at 105° C. Recycled pulp was obtained according to the aforementioned method.
5.00 g of pulp dried in the same manner as described above were eluted into 100 ml of physiological saline followed by measurement of the chlorine concentration thereof (JIS K 0102 33.2).
(§3) Eight commercially available disposable diapers (Moony M Size, Unicharm Corp.) that had adsorbed 200 ml of physiological saline were placed in a twin tub compact washing machine (Harebare AST-01, Alumis Co., Ltd.). 80 g of CaO (Wako Pure Chemical Industries, Ltd.) were placed in the washing tub followed by the addition of 6.5 L of alkaline electrolyzed water (pH 12, generated with the ESS-ZERO Electrolyzed Water Sanitation System manufactured by Tech Corp.). […]

[4] = Evaluation of pH of recycled pulp; format: physicochemical; conditions: 1.00 g dried pulp in 10 ml physiological saline; criterion pH 3.1-9.8
Description: as §2
1.00 g of the dried pulp was weighed out into a beaker followed by the addition of 10 ml of physiological saline. After gently stirring with a glass rod, the pulp was allowed to stand undisturbed for 10 minutes followed by measurement of the liquid inside the beaker with a pH meter (AS-212, As One Corp.).
as §3

Structure (SMILES) | Bactericidal Effect E. coli [1] | Bactericidal Effect S. aureus [2] | Residual Chlorine ppm [3] | pH of Recycled Pulp [4]
OCl [compound 3, sodium hypochlorite] | − | − | 1 ppm | 12.3
[Na+].[O-]Cl [compound 4, sodium hypochlorite] | − | − | 1 ppm | 12.2
OCl [compound 5, sodium hypochlorite] | − | − | 1 ppm | 12.0
